Data reported in paper PMC9719519, “Non-classical ferroptosis inhibition by a small molecule targeting PHB2” (Nature Communications, 2022).

Tests used:
Test in all cases: biochemical
Set-up in all cases: Eurofins recombinant human kinase profiling, remaining kinase activity as % of control, 10 uM ATP
Details in all cases: ATP 10 uM; read-out: %Ctrl@10 μM
PrKX(h) = PrKX(h) (Homo sapiens, UniProt P51817)
Procedure, shortened: (§1)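 Recombinant human kinases, 401 in total, screened using an outsourced kinase profiling assay.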

CDK3/cyclinE(h) = CDK3/cyclinE(h) (Homo sapiens, UniProt Q00526)
Procedure, shortened: as §1

PKCμ(h) = target: T1, PKCμ(h) (Homo sapiens, UniProt Q15139)
T1 construct: gene PRKD1
Procedure, shortened: as §1

CaMKI(h) = target: T2, CaMKI(h) (Homo sapiens, UniProt Q14012)
T2 construct: gene CAMK1
Procedure, shortened: as §1

ULK2(h) = ULK2(h) (Homo sapiens, UniProt Q8IYT8)
Procedure, shortened: as §1

CHK2(h) = target: T3, CHK2(h) (Homo sapiens, UniProt O96017)
T3 construct: gene CHEK2
Procedure, shortened: as §1

PKCβI(h) = target: T4, PKCβI(h) (Homo sapiens, UniProt P05771)
T4 construct: gene PRKCB; isoform beta I
Procedure, shortened: as §1

cKit(D816H)(h) = target: T5, cKit(D816H)(h) (Homo sapiens, UniProt P10721, D816H)
T5 construct: gene KIT
Procedure, shortened: as §1

PDGFRα(h) = target: T6, PDGFRα(h) (Homo sapiens, UniProt P16234)
T6 construct: gene PDGFRA
Procedure, shortened: as §1

PKAcβ(h) = target: T7, PKAcβ(h) (Homo sapiens, UniProt P22694)
T7 construct: gene PRKACB
Procedure, shortened: as §1

MLK1(h) = target: T8, MLK1(h) (Homo sapiens, UniProt P80192)
T8 construct: gene MAP3K9
Procedure, shortened: as §1

Abl(h) = target: T9, Abl(h) (Homo sapiens, UniProt P00519)
T9 construct: gene ABL1
Procedure, shortened: as §1

PKBγ(h) = target: T10, PKBγ(h) (Homo sapiens, UniProt Q9Y243)
T10 construct: gene AKT3
Procedure, shortened: as §1

Ron(h) = target: T11, Ron(h) (Homo sapiens, UniProt Q04912)
T11 construct: gene MST1R
Procedure, shortened: as §1

CK2α1(h) = target: T12, CK2α1(h) (Homo sapiens, UniProt P68400)
T12 construct: gene CSNK2A1
Procedure, shortened: as §1

WNK2(h) = WNK2(h) (Homo sapiens, UniProt Q9Y3S1)
Procedure, shortened: as §1

GCK(h) = target: T13, GCK(h) (Homo sapiens, UniProt Q12851)
T13 construct: gene MAP4K2
Procedure, shortened: as §1

CDK5/p35(h) = target: T14, CDK5/p35(h) (Homo sapiens, UniProt Q00535)
T14 construct: p35
Procedure, shortened: as §1

Pim-1(h) = target: T15, Pim-1(h) (Homo sapiens, UniProt P11309)
T15 construct: gene PIM1
Procedure, shortened: as §1

HIPK3(h) = HIPK3(h) (Homo sapiens, UniProt Q9H422)
Procedure, shortened: as §1

NDR2(h) = target: T16, NDR2(h) (Homo sapiens, UniProt Q9Y2H1)
T16 construct: gene STK38L
Procedure, shortened: as §1

CK1δ(h) = target: T17, CK1δ(h) (Homo sapiens, UniProt P48730)
T17 construct: gene CSNK1D
Procedure, shortened: as §1

T3 sequence (O96017 whole entry): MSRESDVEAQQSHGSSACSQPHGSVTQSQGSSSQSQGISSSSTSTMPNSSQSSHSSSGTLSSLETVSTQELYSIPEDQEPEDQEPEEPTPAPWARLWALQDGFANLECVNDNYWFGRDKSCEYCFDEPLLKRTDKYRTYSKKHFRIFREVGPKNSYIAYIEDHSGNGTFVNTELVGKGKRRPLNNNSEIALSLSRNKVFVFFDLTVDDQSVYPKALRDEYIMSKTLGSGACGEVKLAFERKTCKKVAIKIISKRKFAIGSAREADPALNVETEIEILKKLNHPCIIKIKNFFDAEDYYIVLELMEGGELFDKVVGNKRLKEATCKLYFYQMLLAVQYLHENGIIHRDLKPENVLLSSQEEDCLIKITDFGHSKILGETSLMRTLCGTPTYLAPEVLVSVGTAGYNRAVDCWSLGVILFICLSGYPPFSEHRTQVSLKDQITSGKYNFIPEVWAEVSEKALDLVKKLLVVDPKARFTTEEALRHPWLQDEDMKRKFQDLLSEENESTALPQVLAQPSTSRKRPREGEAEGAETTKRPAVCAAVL
T12 sequence (P68400 whole entry): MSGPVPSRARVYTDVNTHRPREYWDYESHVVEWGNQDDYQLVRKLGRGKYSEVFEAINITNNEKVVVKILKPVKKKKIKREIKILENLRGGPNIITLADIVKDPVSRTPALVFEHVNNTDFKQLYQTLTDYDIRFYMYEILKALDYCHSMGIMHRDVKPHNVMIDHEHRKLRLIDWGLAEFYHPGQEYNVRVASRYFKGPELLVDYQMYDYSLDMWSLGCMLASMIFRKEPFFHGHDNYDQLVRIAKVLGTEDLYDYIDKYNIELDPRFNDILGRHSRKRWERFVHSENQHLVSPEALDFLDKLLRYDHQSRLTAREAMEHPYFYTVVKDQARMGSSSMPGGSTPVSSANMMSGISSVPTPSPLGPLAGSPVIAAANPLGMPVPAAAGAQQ
PrKX(h), sequence (P51817 whole entry): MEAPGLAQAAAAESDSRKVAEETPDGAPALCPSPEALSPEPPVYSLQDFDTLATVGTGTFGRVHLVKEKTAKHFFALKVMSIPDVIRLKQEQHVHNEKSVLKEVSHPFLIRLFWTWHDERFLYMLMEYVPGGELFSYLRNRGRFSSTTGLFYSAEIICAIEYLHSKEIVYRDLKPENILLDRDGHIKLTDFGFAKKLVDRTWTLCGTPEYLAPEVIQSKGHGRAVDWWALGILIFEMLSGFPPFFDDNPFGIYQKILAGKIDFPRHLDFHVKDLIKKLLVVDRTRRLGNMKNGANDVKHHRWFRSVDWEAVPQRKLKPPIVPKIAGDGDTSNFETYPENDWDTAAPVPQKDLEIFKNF
T16 sequence (Q9Y2H1 whole entry): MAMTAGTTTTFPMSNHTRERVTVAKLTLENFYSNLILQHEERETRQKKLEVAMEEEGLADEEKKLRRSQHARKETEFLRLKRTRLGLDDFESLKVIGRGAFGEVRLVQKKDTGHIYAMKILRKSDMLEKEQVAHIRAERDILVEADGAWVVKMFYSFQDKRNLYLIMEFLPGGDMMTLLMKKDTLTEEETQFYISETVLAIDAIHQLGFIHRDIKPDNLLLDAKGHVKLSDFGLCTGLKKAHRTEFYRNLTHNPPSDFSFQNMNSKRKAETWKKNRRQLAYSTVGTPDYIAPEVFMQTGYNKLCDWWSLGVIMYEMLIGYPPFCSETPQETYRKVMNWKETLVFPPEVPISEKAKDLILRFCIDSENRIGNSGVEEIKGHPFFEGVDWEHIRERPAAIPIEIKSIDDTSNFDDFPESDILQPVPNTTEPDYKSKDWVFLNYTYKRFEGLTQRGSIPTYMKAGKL
T15 sequence (P11309 whole entry): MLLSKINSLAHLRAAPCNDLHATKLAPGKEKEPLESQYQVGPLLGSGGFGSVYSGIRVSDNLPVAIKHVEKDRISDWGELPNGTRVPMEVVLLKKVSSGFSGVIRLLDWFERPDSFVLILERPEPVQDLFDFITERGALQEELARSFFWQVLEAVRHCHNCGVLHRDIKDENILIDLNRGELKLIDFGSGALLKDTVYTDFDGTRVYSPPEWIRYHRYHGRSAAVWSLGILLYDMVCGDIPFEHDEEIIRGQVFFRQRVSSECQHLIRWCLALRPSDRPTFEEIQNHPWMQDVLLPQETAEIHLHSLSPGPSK
T17 sequence (P48730 whole entry): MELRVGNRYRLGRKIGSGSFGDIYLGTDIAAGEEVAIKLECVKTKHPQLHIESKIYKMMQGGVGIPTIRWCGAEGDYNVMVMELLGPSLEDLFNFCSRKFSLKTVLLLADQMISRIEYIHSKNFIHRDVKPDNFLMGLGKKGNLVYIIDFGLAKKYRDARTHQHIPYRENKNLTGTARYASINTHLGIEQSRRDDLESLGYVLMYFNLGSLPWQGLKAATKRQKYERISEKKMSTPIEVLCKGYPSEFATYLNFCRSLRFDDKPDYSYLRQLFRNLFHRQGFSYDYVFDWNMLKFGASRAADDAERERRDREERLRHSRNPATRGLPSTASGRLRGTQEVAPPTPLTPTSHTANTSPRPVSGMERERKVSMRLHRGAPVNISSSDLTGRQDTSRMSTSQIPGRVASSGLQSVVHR
T4 sequence (P05771 whole entry, canonical isoform): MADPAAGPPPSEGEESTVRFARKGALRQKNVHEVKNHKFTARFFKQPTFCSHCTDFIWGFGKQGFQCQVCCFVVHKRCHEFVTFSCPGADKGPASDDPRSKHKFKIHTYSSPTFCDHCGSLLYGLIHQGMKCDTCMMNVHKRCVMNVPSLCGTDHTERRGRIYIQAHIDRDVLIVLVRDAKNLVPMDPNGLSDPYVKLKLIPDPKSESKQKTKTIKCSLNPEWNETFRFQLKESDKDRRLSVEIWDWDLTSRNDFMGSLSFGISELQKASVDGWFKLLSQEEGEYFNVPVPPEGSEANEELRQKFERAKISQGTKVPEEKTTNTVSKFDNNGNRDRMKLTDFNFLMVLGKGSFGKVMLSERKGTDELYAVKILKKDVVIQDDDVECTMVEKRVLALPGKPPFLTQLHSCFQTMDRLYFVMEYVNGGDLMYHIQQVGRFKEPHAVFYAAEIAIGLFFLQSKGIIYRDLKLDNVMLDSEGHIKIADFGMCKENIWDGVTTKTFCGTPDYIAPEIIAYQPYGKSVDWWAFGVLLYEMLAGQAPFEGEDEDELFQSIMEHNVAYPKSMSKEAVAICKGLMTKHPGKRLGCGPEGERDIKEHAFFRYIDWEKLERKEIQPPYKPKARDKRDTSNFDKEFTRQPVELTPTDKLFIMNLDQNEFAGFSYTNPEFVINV
T14 sequence (Q00535 whole entry): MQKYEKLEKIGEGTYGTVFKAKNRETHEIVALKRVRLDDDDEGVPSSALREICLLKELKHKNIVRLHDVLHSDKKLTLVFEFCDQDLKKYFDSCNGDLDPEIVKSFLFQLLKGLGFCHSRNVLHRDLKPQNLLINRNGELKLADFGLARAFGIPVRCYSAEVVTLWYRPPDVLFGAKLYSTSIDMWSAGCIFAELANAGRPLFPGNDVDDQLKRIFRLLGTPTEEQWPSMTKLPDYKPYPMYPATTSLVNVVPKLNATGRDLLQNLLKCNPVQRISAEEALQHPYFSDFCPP
T14 sequence (Q15078 whole entry partner): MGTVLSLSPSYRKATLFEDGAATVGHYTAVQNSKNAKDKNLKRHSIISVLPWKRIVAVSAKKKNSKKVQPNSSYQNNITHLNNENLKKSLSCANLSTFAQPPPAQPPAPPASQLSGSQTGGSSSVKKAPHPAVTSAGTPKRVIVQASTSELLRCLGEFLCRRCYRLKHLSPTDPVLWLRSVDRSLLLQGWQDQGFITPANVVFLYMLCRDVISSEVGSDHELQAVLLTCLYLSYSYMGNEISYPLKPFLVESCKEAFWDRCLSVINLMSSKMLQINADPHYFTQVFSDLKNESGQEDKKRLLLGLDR
HIPK3(h), sequence (Q9H422 whole entry): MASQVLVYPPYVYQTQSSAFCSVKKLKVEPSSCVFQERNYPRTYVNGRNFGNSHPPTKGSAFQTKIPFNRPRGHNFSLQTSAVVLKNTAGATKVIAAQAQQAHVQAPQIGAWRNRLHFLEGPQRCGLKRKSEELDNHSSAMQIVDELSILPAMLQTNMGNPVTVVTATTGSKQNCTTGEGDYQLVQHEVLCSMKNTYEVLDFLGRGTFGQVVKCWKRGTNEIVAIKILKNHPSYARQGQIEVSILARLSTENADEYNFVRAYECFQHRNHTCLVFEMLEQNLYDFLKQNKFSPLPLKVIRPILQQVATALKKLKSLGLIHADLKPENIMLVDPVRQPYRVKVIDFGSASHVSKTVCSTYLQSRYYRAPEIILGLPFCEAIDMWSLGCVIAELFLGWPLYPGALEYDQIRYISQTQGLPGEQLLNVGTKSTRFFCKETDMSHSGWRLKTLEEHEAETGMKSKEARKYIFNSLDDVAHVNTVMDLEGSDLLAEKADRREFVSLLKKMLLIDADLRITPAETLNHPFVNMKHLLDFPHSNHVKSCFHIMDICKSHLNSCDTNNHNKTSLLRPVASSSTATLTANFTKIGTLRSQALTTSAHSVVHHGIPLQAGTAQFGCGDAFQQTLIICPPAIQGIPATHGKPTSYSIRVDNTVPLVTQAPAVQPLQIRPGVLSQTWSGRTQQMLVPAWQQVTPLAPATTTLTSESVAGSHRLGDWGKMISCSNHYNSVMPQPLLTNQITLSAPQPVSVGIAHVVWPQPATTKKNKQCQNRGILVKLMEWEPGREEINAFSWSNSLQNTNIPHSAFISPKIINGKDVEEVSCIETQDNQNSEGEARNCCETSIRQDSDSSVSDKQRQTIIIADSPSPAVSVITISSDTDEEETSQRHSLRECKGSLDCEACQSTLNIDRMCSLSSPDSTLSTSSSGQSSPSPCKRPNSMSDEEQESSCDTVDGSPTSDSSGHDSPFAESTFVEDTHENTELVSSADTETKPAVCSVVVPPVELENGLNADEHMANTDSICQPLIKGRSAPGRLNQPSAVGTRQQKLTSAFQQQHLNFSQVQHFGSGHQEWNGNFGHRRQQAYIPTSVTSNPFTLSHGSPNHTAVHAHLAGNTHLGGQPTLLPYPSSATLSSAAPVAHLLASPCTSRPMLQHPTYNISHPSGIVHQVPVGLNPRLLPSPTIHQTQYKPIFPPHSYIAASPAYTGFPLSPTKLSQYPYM

Compound `C1=C(c2nc(-c3cnn(C4CCNCC4)c3)cn3cc(-c4ccccc4)nc23)CCOC1` [YL-939] has a remaining activity at 10 µM (PrKX(h)) of 80%, a remaining activity at 10 µM (CDK3/cyclinE(h)) of 102% and a remaining activity at 10 µM (PKCμ(h)) of 77%. For the same compound, the remaining activity at 10 µM (CaMKI(h)) was 81%, the remaining activity at 10 µM (ULK2(h)) was 77% and the remaining activity at 10 µM (CHK2(h)) was 100%. For the same compound, the remaining activity at 10 µM (PKCβI(h)) was 98%, the remaining activity at 10 µM (cKit(D816H)(h)) was 90% and the remaining activity at 10 µM (PDGFRα(h)) was 76%. For the same compound, the remaining activity at 10 µM (PKAcβ(h)) was 94%, the remaining activity at 10 µM (MLK1(h)) was 86% and the remaining activity at 10 µM (Abl(h)) was 102%. The remaining activity at 10 µM (PKBγ(h)) was 97%, the remaining activity at 10 µM (Ron(h)) was 99% and the remaining activity at 10 µM (CK2α1(h)) was 103%. For the same compound, the remaining activity at 10 µM (WNK2(h)) was 76%, the remaining activity at 10 µM (GCK(h)) was 76% and the remaining activity at 10 µM (CDK5/p35(h)) was 100%. The remaining activity at 10 µM (Pim-1(h)) was 68%, the remaining activity at 10 µM (HIPK3(h)) was 86% and the remaining activity at 10 µM (NDR2(h)) was 87%. It also gave a remaining activity at 10 µM (CK1δ(h)) of 111%.
